We go through 10 molecules from patent publication US20050250835A1, “Novel tumor-selective chemotherapeutic agents” (priority 2004, published 2005).

Where two headings read alike, the source gives them in different places.

As a reminder, the IC50 is the concentration at which inhibition is half-maximal. Low values mean greater potency, high ones weaker potency.

One data set relates to colon 38 adenocarcinoma. Briefly: Colon 38 adenocarcinoma in mice. The data set is classed as in vivo, BDF1 mice.
In another data set the test system is JC breast adenocarcinoma. Briefly: JC breast adenocarcinoma in mice. It is filed as in vivo, Balb/c mice. How it is done:
(§1) JC is an epithelial-like cell line established in 1983 from a spontaneous primary adenocarcinoma along the milk line (Capone et al., Cancer Immuno. Immunother. 1987, 25, 93-9). It produces tumors with papillary adenocarcinoma morphology in BALB/c mice. […] At the lowest dose of 0.16 mg/kg, (+)-YW-391 (LCK: 1.5) killed 10-times more tumor cells than Dox at 8 mg/kg (LCK: 0.78). (+)-YW-391 has the potential to be a powerful new treatment for human breast cancer.

The subject of data set [1] is SKOV-3 human ovarian cancer. Put plainly: SKOV-3 human ovarian cancer xenograft. The data set is classed as in vivo, CD1 nude mice. How it is done:
Ovarian cancer is one of the most difficult to treat human cancers, and very few drugs are effective. YW-391 had significant activity in SKOV-3 human ovarian cancer xenograft (FIG. 8 and Table 9). […] [table] treated animals. YW-391 and doxorubicin were administered iv., and paclitaxel was administered ip. Equivalents
(A xenograft is tissue or cells of one species grown in another, often human tumour cells in immunodeficient mice.)

Another data set deals with Lewis lung carcinoma. Put plainly: Lewis lung carcinoma in mice.
The next data set has as its system L1210 leukemia. Briefly: L1210 leukemia tumor model in mice.
A further data set deals with L1210 leukemia cells. Put plainly: Anticancer activity in vitro, 3H-thymidine incorporation. The data set is classed as cell-based, murine. The conditions noted are these: Mus musculus, 48-h proliferation assay, 3H-thymidine uptake, mean of two experiments. (Dividing cells build labelled thymidine or BrdU into new DNA.)
Another data set concerns various tumors. To be noted: cited from earlier work.
In a further data set the test system is various cancer cells. The conditions noted are these: various cancer cells in vitro, 1 h exposure (Ghielmini et al. 1997); cited from earlier work.
For data set [2] the following is noted: one patient with liver cancer, 40 microg/m^2, one cycle (days 1-5); cited from earlier work.
A further data set deals with HSA (Homo sapiens, UniProt P02768). To be noted: exogenously added HSA; cited from earlier work.
A further data set concerns the target T1, endogenous albumin (Homo sapiens, UniProt P02768).
T1 construct: selectivity of Dox-MH for endogenous albumin, Dox-MH was incubated with human blood plasma; from tissue; host or cells: human blood plasma
To be noted: human blood plasma; cited from earlier work.

Data set [3] has as its system MDA-MB 435 human breast cancer. To be noted: cited from earlier work.
Data set [4] relates to mouse renal RENCA, human breast cancers MDA-MB 435 and MCF-7. To be noted: three animal tumor models; cited from earlier work.
The nature of data set [5]: JC breast adenocarcinoma in mice. The conditions noted are these: BALB/c, mouse, in vivo, intravenous, 8 mg/kg; mice bearing JC. The data set is classed as in vivo, Balb/c mice. The method, then:
as §1

The mark [6] stands for this setting: 0.2 mg/kg i.v. on days 1, 5, 12.
Where [7] appears, read: 3.0 mg/kg i.v. on days 1, 5, 12.

Chain of HSA (P02768 25-609): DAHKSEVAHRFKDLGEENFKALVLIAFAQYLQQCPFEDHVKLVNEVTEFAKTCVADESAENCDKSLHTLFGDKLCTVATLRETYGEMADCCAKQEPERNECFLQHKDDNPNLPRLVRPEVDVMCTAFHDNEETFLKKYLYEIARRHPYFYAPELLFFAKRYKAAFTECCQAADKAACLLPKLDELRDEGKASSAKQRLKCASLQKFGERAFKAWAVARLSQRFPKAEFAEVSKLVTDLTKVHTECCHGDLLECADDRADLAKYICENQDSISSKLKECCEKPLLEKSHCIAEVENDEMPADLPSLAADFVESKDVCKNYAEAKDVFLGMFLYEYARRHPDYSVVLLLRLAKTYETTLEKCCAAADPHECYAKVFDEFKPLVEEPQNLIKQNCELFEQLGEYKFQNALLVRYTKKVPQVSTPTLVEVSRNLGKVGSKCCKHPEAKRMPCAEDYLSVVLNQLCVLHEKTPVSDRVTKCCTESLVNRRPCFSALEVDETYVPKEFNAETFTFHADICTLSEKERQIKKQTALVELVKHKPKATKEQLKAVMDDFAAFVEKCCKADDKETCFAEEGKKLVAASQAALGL
T1 sequence (P02768 25-609): as above
Description for L1210 leukemia cells: The antitumor activity of the compounds was evaluated in vitro against L1210 leukemia and human SKOV-3 ovarian cancer cells (Table 4). L1210 leukemia cells and SKOV-3 (2.5×10^4 cells/well) in RPMI-1640 medium supplemented with 10% FCS medium were seeded in a 96-well plate. Drugs (10 uL) at increasing concentrations were added to each well, and the total volume was adjusted to 0.1 mL/well using the same medium. For L1210 leukemia cells, the plate was incubated for 24 h at 37° C. followed by addition of 10 uL of ^3H-thymidine (20 uCi/mL). […] The plate was incubated for another 24 h. The cells were harvested, and radioactivity was counted using the Packard Matrix 96 beta counter. The results were expressed as the minimal concentration that inhibits ^3H-thymidine incorporation by 50% (IC50). Percent growth inhibition was calculated as follows: [(total cpm−experimental cpm)/total cpm]×100.

Regarding `O=C(CCCCCN1C(=O)C=CC1=O)Oc1cc2c(c3ccccc13)[C@H](CCl)CN2C(=O)c1cc2cc(NC(=O)c3cc4cc(F)ccc4[nH]3)ccc2[nH]1` [(+)-YW-391], the “tumor cells killed relative to 5-FU at 70 mg/kg” value in the data set on colon 38 adenocarcinoma (0.15 mg/kg (LCK 2.3) versus 5-FU 70 mg/kg (LCK 1.1)) is recorded as 10 times. The “% Maximum weight loss” value is given as −25% in the data set on colon 38 adenocarcinoma (0.3 mg/kg q4d × 2 i.v.); −3% in [1] (0.13 mg/kg iv. on days 15, 24, 33); −17% with Lewis lung carcinoma (setting [6]). Also, the “tumor cells killed relative to Dox at 8 mg/kg” value with JC breast adenocarcinoma (0.16 mg/kg (LCK 1.5) versus Dox 8 mg/kg (LCK 0.78)) amounted to 10 times. The molecule also returned a TGI in the data set with JC breast adenocarcinoma (at MTD, dose not given) of 98%. Also, the “Log10 cell kill (LCK)” value in the data set with Lewis lung carcinoma (setting [6]) came to 0.75. In the data set on Lewis lung carcinoma (no dose given), this molecule came in with a TGIs of 98%. Moreover, the “% ILS” value in the data set on L1210 leukemia (0.05 mg/kg i.v. on day 1) turned out to be 40%; in the data set on L1210 leukemia (0.1 mg/kg i.v. on day 1) it was 51%.
As for `O=C(CCCCCN1C(=O)C=CC1=O)Oc1cc2c(c3ccccc13)[C@H](CCl)CN2C(=O)c1cc2cc(NC(=O)c3cc4ccccc4o3)ccc2[nH]1` [(+)-YW-392], the midpoint of inhibition in the data set with L1210 leukemia cells, the IC50, lay at 31 nM. That is a double-digit nanomolar value.
For `Cc1c[nH]c2c1[C@@]13C[C@@H]1CN(C(=O)c1cc4cc(NC(=O)c5cc6ccccc6o5)ccc4[nH]1)C3=CC2=O` [Adozelesin, adozelesin], in the data set on various tumors (L1210 leukemia, B16 melanoma, M5076 sarcoma, colon 38, colon CX-1, lung LX-1, pancreas 02, ovarian 2780 in mice (Li et al. 1991)), the “antitumor activity in vivo” value is “very active”.
Take `Cc1c[nH]c2c(O)cc3c(c12)[C@H](CCl)CN3C(=O)c1cc2cc(NC(=O)Nc3ccc4[nH]c(C(=O)N5C[C@@H](CCl)c6c5cc(O)c5[nH]cc(C)c65)cc4c3)ccc2[nH]1` [Bizelesin, bizelesin]: the “antitumor activity in vivo” value with various tumors (P388, L1210, B16, UACC-62, LOX IMVI, SK-MEL-3, CAKI-1, LX-1, Lewis lung, HT-29, colon 38, pancreas 02, MCF7, MX-1 (Carter et al. 1996)) was “effective”.
For the molecule `CCN(CC)c1ccc2cc(C(=O)Nc3ccc4[nH]c(C(=O)N5C[C@@H](CCl)c6c5cc(OC(=O)Nc5ccccc5)c5[nH]cc(C)c65)cc4c3)oc2c1` [Carzelesin, carzelesin], the “antitumor activity in vivo” value with various tumors (several colon adenocarcinomas and pediatric rhabdomyosarcomas (Houghton et al. 1995)) was “effective”. In addition, the “average IC70 value” in the data set with various cancer cells was 0.23 ng/mL. Also, in data set [2], the “duration of partial remission” value is 8 months and the “regression of primary liver cancer” value is 50%.
On to `N.N.[Cl][Pt][Cl]` [Cisplatin, cisplatin], for which, in the data set with Lewis lung carcinoma (setting [7]), the “% Maximum weight loss” value is −13%, the “% Tumor growth inhibition” value amounted to 74% and the “Log10 cell kill (LCK)” value was 0.45.
As for `COc1cccc2c1C(=O)c1c(O)c3c(c(O)c1C2=O)C[C@@](O)(/C(CO)=N/NC(=O)CCCCCN1C(=O)C=CC1=O)C[C@@H]3O[C@H]1C[C@H](N)[C@H](O)[C@H](C)O1` [Dox-MH], the “time by which all of the Dox-MH had reacted” value on HSA and on endogenous albumin was no more than 90 min in each case. Moreover, the “time within which majority of the Dox-MH reacted with HSA” value at HSA is listed as no more than 5 min. Moreover, the body weight change entry in data set [3] (after 24 days of drug administration) is “did not produce an overall change in body weight”. Moreover, in [3] (optimal dose 3×39.3 umol/kg (3×23 mg/kg)), the antitumor response entry is “complete remissions”. In addition, the “antitumor efficacy and toxicity versus free doxorubicin” value in [4] was “distinctly superior to free doxorubicin”.
As to `COc1cccc2c1C(=O)c1c(O)c3c(c(O)c1C2=O)C[C@@](O)(C(=O)CO)C[C@@H]3O[C@H]1C[C@H](N)[C@H](O)[C@H](C)O1` [Doxorubicin, doxorubicin], the MTD in [5] came to 8 mg/kg. For the same molecule, in the data set with JC breast adenocarcinoma (8.0 mg/kg q4d × 3 i.v.), the “% Maximum weight loss” value is on record as −25%, the “% Tumor growth inhibition” value stood at 82% and the “Log10 cell kill (LCK)” value worked out at 0.78. Further, in [1] (5 mg/kg iv. on days 15, 24, 33), the “% Maximum weight loss” value was −4% and the “% Tumor growth inhibition” value turned out to be 39%. The antitumor response entry in data set [3] (free Dox) is “modest antitumor activity”. Also, in data set [3] (treatment with free Dox), the body weight loss entry was “about 10%”. Besides, the “% ILS” value in the data set on L1210 leukemia (10.0 mg/kg i.v. on day 1) is reported as 85%.
For the molecule `COC(=O)c1c(C)[nH]c2c(OC(=O)N3CCN(C)CC3)cc3c(c12)[C@H](CBr)CN3C(=O)c1cc2cc(OC)c(OC)c(OC)c2[nH]1` [KW-2189], the “antitumor activity in vivo” value with various tumors (P388, L1210, B16, colon 26, colon 38, LC-6, ST-4, ST-40, LI-7, PAN-02, MX-1 (Kobayashi et al. 1994)) is listed as “active”.
Regarding `CC(=O)O[C@H]1C(=O)[C@@]2(C)[C@H]([C@H](OC(=O)c3ccccc3)[C@]3(O)C[C@H](OC(=O)[C@H](O)[C@@H](NC(=O)c4ccccc4)c4ccccc4)C(C)=C1C3(C)C)[C@]1(OC(C)=O)CO[C@@H]1C[C@@H]2O` [Paclitaxel, paclitaxel], in [1] (25 mg/kg ip. on days 15, 24, 33), the “% Maximum weight loss” value is −1%.
